According to PMC10648852, “Molecular drivers of resistance to sulbactam-durlobactam in contemporary clinical isolates of Acinetobacter baumannii” (Antimicrobial Agents and Chemotherapy, 2023):
Where two headings read alike, the source gives them in different places.

Experiments:
Experiment in all cases: microbe, parasite or virus in culture
[1] = system: ABC clinical isolates with SUL-DUR MIC > 4 µg/mL; assay type: cell-based, Acinetobacter baumannii-calcoaceticus complex; details: Acinetobacter
How it was run: (§1)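 SUL-DUR combines serially twofold-diluted sulbactam with durlobactam held at 4 µg/mL; MICs obtained by CLSI-standard broth microdilution and read against CLSI breakpoints when these exist.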

[2] = system: A. baumannii clinical isolates; assay type: cell-based; details: Acinetobacter baumannii
How it was run: as §1

[3] = system: A. nosocomialis clinical isolate; assay type: cell-based; details: Acinetobacter nosocomialis, isolate ARC7023 (IHMA 2118812), France, BSI, 2019, read-out: MIC
How it was run: as §1

[4] = system: A. pittii clinical isolates; assay type: cell-based; details: Acinetobacter pittii
How it was run: as §1

Work on `CN(C)c1cc(NC(=O)CNC(C)(C)C)c(O)c2c1C[C@H]1C[C@H]3[C@H](N(C)C)C(O)=C(C(N)=O)C(=O)[C@@]3(O)C(O)=C1C2=O` [TIG, tigecycline] yielded an MIC50 [1] of 1 µg/mL, an MIC90 [1] of 2 µg/mL and an MIC ([1]; read-out: MIC Max) of 16 µg/mL. For the same compound, the MIC ([1]; read-out: MIC Min) was 0.13 µg/mL, the MIC ([2]; isolate ARC6644 (IHMA 1420327), Mexico, UTI, 2016, read-out: MIC) was 1 µg/mL and the MIC ([2]; isolate ARC6645 (IHMA 1435703), France, UTI, 2016, read-out: MIC) was 0.25 µg/mL. It also gave an MIC ([2]; isolate ARC6646 (IHMA 1484127), United States, RTI, 2016, read-out: MIC) of 1 µg/mL, an MIC ([2]; isolate ARC6647 (IHMA 1386786), Argentina, RTI, 2016, read-out: MIC) of 0.12 µg/mL and an MIC ([2]; isolate ARC6648 (IHMA 1407634), Spain, RTI, 2016, read-out: MIC) of 1 µg/mL. The MIC ([2]; isolate ARC6650 (IHMA 1457337), Argentina, RTI, 2016, read-out: MIC) was 1 µg/mL, the MIC ([2]; isolate ARC6652 (IHMA 1465642), Belgium, RTI, 2016, read-out: MIC) was 0.25 µg/mL and the MIC ([2]; isolate ARC6653 (IHMA 1308777), Vietnam, RTI, 2016, read-out: MIC) was 1 µg/mL. The MIC ([2]; isolate ARC6799 (IHMA 1562935), Spain, UTI, 2017, read-out: MIC) was 1 µg/mL, the MIC ([2]; isolate ARC6800 (IHMA 1557526), Turkey, RTI, 2017, read-out: MIC) was 1 µg/mL and the MIC ([2]; isolate ARC6801 (IHMA 1662094), Thailand, RTI, 2017, read-out: MIC) was 1 µg/mL. It also gave an MIC ([2]; isolate ARC6802 (IHMA 1557073), Spain, UTI, 2017, read-out: MIC) of 1 µg/mL, an MIC ([2]; isolate ARC6803 (IHMA 1589408), Belgium, UTI, 2017, read-out: MIC) of 1 µg/mL and an MIC ([2]; isolate ARC6805 (IHMA 1558650), United States, RTI, 2017, read-out: MIC) of 1 µg/mL. For the same compound, the MIC ([2]; isolate ARC6808 (IHMA 1557168), Spain, RTI, 2017, read-out: MIC) was 1 µg/mL, the MIC ([2]; isolate ARC6809 (IHMA 1699528), Guatemala, RTI, 2017, read-out: MIC) was 0.5 µg/mL and the MIC ([2]; isolate ARC6810 (IHMA 1699548), Guatemala, RTI, 2017, read-out: MIC) was 1 µg/mL. For the same compound, the MIC ([2]; isolate ARC6812 (IHMA 1699530), Guatemala, RTI, 2017, read-out: MIC) was 0.5 µg/mL, the MIC ([2]; isolate ARC6813 (IHMA 1699543), Guatemala, UTI, 2017, read-out: MIC) was 0.25 µg/mL and the MIC ([2]; isolate ARC6814 (IHMA 1699512), Guatemala, RTI, 2017, read-out: MIC) was 1 µg/mL. It also gave an MIC ([2]; isolate ARC6815 (IHMA 1699513), Guatemala, RTI, 2017, read-out: MIC) of 0.5 µg/mL, an MIC ([2]; isolate ARC6816 (IHMA 1699521), Guatemala, RTI, 2017, read-out: MIC) of 2 µg/mL and an MIC ([2]; isolate ARC6817 (IHMA 1699523), Guatemala, RTI, 2017, read-out: MIC) of 0.5 µg/mL. It also gave an MIC ([2]; isolate ARC6818 (IHMA 1683261), Thailand, RTI, 2017, read-out: MIC) of 0.25 µg/mL, an MIC ([2]; isolate ARC6819 (IHMA 1683267), Thailand, RTI, 2017, read-out: MIC) of 2 µg/mL and an MIC ([2]; isolate ARC6820 (IHMA 1647876), Argentina, RTI, 2017, read-out: MIC) of 0.5 µg/mL. It also gave an MIC ([2]; isolate ARC6821 (IHMA 1699517), Guatemala, RTI, 2017, read-out: MIC) of 0.25 µg/mL, an MIC ([2]; isolate ARC6822 (IHMA 1637626), Guatemala, RTI, 2017, read-out: MIC) of 0.25 µg/mL and an MIC ([2]; isolate ARC6823 (IHMA 1620872), Greece, SSSI, 2017, read-out: MIC) of 1 µg/mL. The MIC ([2]; isolate ARC6824 (IHMA 1625487), Argentina, BSI, 2017, read-out: MIC) was 0.5 µg/mL, the MIC ([2]; isolate ARC6937 (IHMA 1562926), Spain, UTI, 2017, read-out: MIC) was 1 µg/mL and the MIC ([2]; isolate ARC6950 (IHMA 1820064), Israel, RTI, 2018, read-out: MIC) was 0.5 µg/mL. It also gave an MIC ([2]; isolate ARC6953 (IHMA 1909827), Turkey, IAI, 2018, read-out: MIC) of 0.5 µg/mL, an MIC ([2]; isolate ARC6954 (IHMA 1838192), Guatemala, SSSI, 2018, read-out: MIC) of 0.5 µg/mL and an MIC ([2]; isolate ARC6955 (IHMA 1825425), United States, RTI, 2018, read-out: MIC) of 0.5 µg/mL. For the same compound, the MIC ([2]; isolate ARC7008 (IHMA 2009813), Thailand, BSI, 2019, read-out: MIC) was 1 µg/mL, the MIC ([2]; isolate ARC7009 (IHMA 2043611), United States, UTI, 2019, read-out: MIC) was 1 µg/mL and the MIC ([2]; isolate ARC7010 (IHMA 2043398), United States, RTI, 2019, read-out: MIC) was 1 µg/mL. For the same compound, the MIC ([2]; isolate ARC7011 (IHMA 2104553), Germany, RTI, 2019, read-out: MIC) was 2 µg/mL, the MIC ([2]; isolate ARC7012 (IHMA 2010001), Thailand, RTI, 2019, read-out: MIC) was 1 µg/mL and the MIC ([2]; isolate ARC7013 (IHMA 1962831), Argentina, RTI, 2019, read-out: MIC) was 0.12 µg/mL. The MIC ([2]; isolate ARC7014 (IHMA 2045328), Guatemala, IAI, 2019, read-out: MIC) was 1 µg/mL, the MIC ([2]; isolate ARC7015 (IHMA 2045327), Guatemala, UTI, 2019, read-out: MIC) was 0.5 µg/mL and the MIC ([2]; isolate ARC7016 (IHMA 2148441), Brazil, BSI, 2019, read-out: MIC) was 0.5 µg/mL. The MIC ([2]; isolate ARC7017 (IHMA 2148446), Brazil, BSI, 2019, read-out: MIC) was 0.5 µg/mL, the MIC ([2]; isolate ARC7018 (IHMA 2045454), Guatemala, IAI, 2019, read-out: MIC) was 1 µg/mL and the MIC ([2]; isolate ARC7019 (IHMA 2114463), Thailand, RTI, 2019, read-out: MIC) was 16 µg/mL. For the same compound, the MIC ([2]; isolate ARC7020 (IHMA 2045326), Guatemala, RTI, 2019, read-out: MIC) was 1 µg/mL, the MIC ([2]; isolate ARC7021 (IHMA 1966347), Guatemala, RTI, 2019, read-out: MIC) was 0.5 µg/mL and the MIC ([2]; isolate ARC7022 (IHMA 2045319), Guatemala, IAI, 2019, read-out: MIC) was 2 µg/mL. The MIC ([2]; isolate ARC7024 (IHMA 2059448), Turkey, RTI, 2019, read-out: MIC) was 2 µg/mL, the MIC ([2]; isolate ARC7025 (IHMA 2002121), Spain, RTI, 2019, read-out: MIC) was 1 µg/mL and the MIC ([2]; isolate ARC7026 (IHMA 2104494), Guatemala, BSI, 2019, read-out: MIC) was 1 µg/mL. The MIC ([2]; isolate ARC7082 (IHMA 2160640), Belgium, BSI, 2020, read-out: MIC) was 1 µg/mL, the MIC ([2]; isolate ARC7083 (IHMA 2163687), United States, RTI, 2020, read-out: MIC) was 2 µg/mL and the MIC ([2]; isolate ARC7084 (IHMA 2189596), Germany, RTI, 2020, read-out: MIC) was 2 µg/mL. The MIC ([2]; isolate ARC7085 (IHMA 2205747), Guatemala, IAI, 2020, read-out: MIC) was 0.5 µg/mL, the MIC ([2]; isolate ARC7086 (IHMA 2207563), Israel, RTI, 2020, read-out: MIC) was 2 µg/mL and the MIC ([2]; isolate ARC7088 (IHMA 2215554), Turkey, BSI, 2020, read-out: MIC) was 2 µg/mL. For the same compound, the MIC ([2]; isolate ARC7089 (IHMA 2240345), Argentina, BSI, 2020, read-out: MIC) was 1 µg/mL, the MIC ([2]; isolate ARC7090 (IHMA 2244410), Poland, RTI, 2020, read-out: MIC) was 2 µg/mL and the MIC ([2]; isolate ARC7091 (IHMA 2244564), Australia, RTI, 2020, read-out: MIC) was 0.5 µg/mL. The MIC ([2]; isolate ARC7092 (IHMA 2258772), United States, BSI, 2020, read-out: MIC) was 1 µg/mL, the MIC ([2]; isolate ARC7093 (IHMA 2258783), United States, RTI, 2020, read-out: MIC) was 2 µg/mL and the MIC ([2]; isolate ARC7094 (IHMA 2296423), Turkey, RTI, 2020, read-out: MIC) was 1 µg/mL. It also gave an MIC ([2]; isolate ARC7095 (IHMA 2320843), Turkey, BSI, 2020, read-out: MIC) of 0.5 µg/mL, an MIC ([2]; isolate ARC7156 (IHMA 2455450), Greece, RTI, 2021, read-out: MIC) of 2 µg/mL and an MIC ([2]; isolate ARC7158 (IHMA 2523738), Italy, BSI, 2021, read-out: MIC) of 1 µg/mL. For the same compound, the MIC ([2]; isolate ARC7159 (IHMA 2456229), Malaysia, RTI, 2021, read-out: MIC) was 1 µg/mL, the MIC ([2]; isolate ARC7160 (IHMA 2458626), Thailand, RTI, 2021, read-out: MIC) was 2 µg/mL and the MIC ([2]; isolate ARC7161 (IHMA 2429252), Ukraine, RTI, 2021, read-out: MIC) was 2 µg/mL. For the same compound, the MIC ([2]; isolate ARC7162 (IHMA 2411847), United States, BSI, 2021, read-out: MIC) was 1 µg/mL, the MIC ([2]; isolate ARC7163 (IHMA 2477704), United States, BSI, 2021, read-out: MIC) was 1 µg/mL and the MIC [3] was 0.25 µg/mL. For the same compound, the MIC ([4]; isolate ARC6949 (IHMA 1898982), Romania, RTI, 2018, read-out: MIC) was 0.5 µg/mL, the MIC ([4]; isolate ARC6951 (IHMA 1776233), Philippines, RTI, 2018, read-out: MIC) was 0.25 µg/mL and the MIC ([4]; isolate ARC6952 (IHMA 1899008), Romania, RTI, 2018, read-out: MIC) was 1 µg/mL. For the same compound, the MIC ([4]; isolate ARC7087 (IHMA 2212062), Colombia, BSI, 2020, read-out: MIC) was 0.25 µg/mL.
